Drawing on PubChem BioAssay (NCI), this text covers GI50 and TGI for eight molecules.

Among the test systems are RPMI-8226 leukemia; HT29 colon; A549 NSCLC; SF-268 CNS; HL-60(TB) leukemia; SW-620 colon; OVCAR-5 ovarian; DU-145 prostate; M14 melanoma; ACHN renal.
Common to all, as to test: NCI anticancer screen, dose series, 48 h

Where “and” joins values, the source holds several entries; their conditions need not be identical. Equal values may be shown once.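 Assay format: 96-well plates, 48-hour exposure. GI50 marks 50% less growth. TGI: total growth inhibition.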 Some results are limits rather than exact numbers.

Consider `COc1ccc(C2CC(c3ccc(Nc4ccnc5cc(Cl)ccc45)cc3)=NN2C=O)cc1` (centres undefined), for which the GI50 is 2.71 µM in the assay on RPMI-8226 leukemia; 3.81 µM in the assay on HT29 colon; 50.3 µM in the assay with A549 NSCLC; over 100 µM in the assay with SF-268 CNS; 2.23 µM in the assay with HL-60(TB) leukemia; 35.8 µM in the assay with SW-620 colon. For the same molecule, the GI50 in the assay on OVCAR-5 ovarian is over 100 µM; in the assay on DU-145 prostate, 38 µM; with M14 melanoma, 7.67 µM; in the assay with ACHN renal, 7.02 µM. The TGI in the assay with RPMI-8226 leukemia is 48.6 µM; in the assay on HT29 colon, over 100 µM; with A549 NSCLC, over 100 µM; with SF-268 CNS, over 100 µM; in the assay with HL-60(TB) leukemia it was 5.16 µM; with SW-620 colon, over 100 µM. Besides, the TGI with OVCAR-5 ovarian, with DU-145 prostate, with M14 melanoma and in the assay with ACHN renal was over 100 µM throughout.
Consider `CCCCCCn1c(SC)nc(COC(=O)NC)c1COC(=O)NC`, for which the TGI in the assay on RPMI-8226 leukemia was 67.7 µM; in the assay with HT29 colon it was 36.2 µM; in the assay with A549 NSCLC, 31.5 µM; in the assay on SF-268 CNS it was 30.6 µM; with HL-60(TB) leukemia, 56 µM; with SW-620 colon, 64.4 µM. The TGI in the assay with OVCAR-5 ovarian is 34.6 µM; with DU-145 prostate, 30.1 µM; in the assay with M14 melanoma it was 38.8 µM; in the assay on ACHN renal it was 30.5 µM.
With `CC1(C)N=C(N)N=C(N)N1c1ccc(Cl)cc1`, the GI50 in the assay on RPMI-8226 leukemia was over 100 µM; with HT29 colon, 1.19 µM; in the assay with A549 NSCLC, 1.25 µM; in the assay with SF-268 CNS it was 0.688 µM; with HL-60(TB) leukemia it was over 100 µM; in the assay with SW-620 colon, 0.832 µM. The GI50 was 0.854 µM with OVCAR-5 ovarian, 5.35 µM with DU-145 prostate, 5.52 µM in the assay with M14 melanoma and 9.55 µM in the assay with ACHN renal. Also, the TGI in the assay on RPMI-8226 leukemia, in the assay with HT29 colon, with A549 NSCLC, with SF-268 CNS, with HL-60(TB) leukemia and with SW-620 colon was over 100 µM throughout. The TGI with OVCAR-5 ovarian, in the assay on DU-145 prostate, with M14 melanoma and in the assay with ACHN renal was over 100 µM throughout.
`NC(=S)N/N=C1\c2ccccc2-c2c(F)c(F)c(F)c(F)c21`: the GI50 was 3.92 µM in the assay on RPMI-8226 leukemia; 2.2 µM in the assay with HT29 colon; 16.7 µM in the assay with A549 NSCLC; 5.26 µM with SF-268 CNS; 3.58 µM in the assay with HL-60(TB) leukemia; 1.79 µM in the assay on SW-620 colon. For the same molecule, the GI50 was 13.6 µM in the assay with OVCAR-5 ovarian, 5.39 µM with DU-145 prostate, 4.53 µM in the assay with M14 melanoma and 2.11 µM with ACHN renal. Also, the TGI was over 55.9 µM with RPMI-8226 leukemia; 5.07 µM with HT29 colon; over 58.4 µM with A549 NSCLC; 12.5 µM with SF-268 CNS; 16 µM in the assay with HL-60(TB) leukemia; 3.66 µM in the assay on SW-620 colon. Also, the TGI with OVCAR-5 ovarian was 30.5 µM; with DU-145 prostate it was 17 µM; with M14 melanoma it was 15.6 µM; in the assay on ACHN renal it was 4.38 µM.
In the case of `Cn1c(=O)nc2n(-c3ccc(Cl)cc3)c3cc(Cl)ccc3nc-2c1=O`, the TGI with RPMI-8226 leukemia came out at 22.8 µM; in the assay on HT29 colon, 9.57 µM; in the assay with A549 NSCLC it was 33 µM; with SF-268 CNS, 7.23 µM; with HL-60(TB) leukemia, 5.66 µM; in the assay on SW-620 colon, 4.22 µM. The TGI came to 29.1 µM in the assay on OVCAR-5 ovarian, 29 µM in the assay on DU-145 prostate, 4.21 µM in the assay on M14 melanoma and 25.5 µM with ACHN renal.
For the molecule `Cc1cnc2oc3ccc(O)cc3c2c1-c1ccccc1`, the GI50 was over 100 µM in the assay on RPMI-8226 leukemia; over 100 µM in the assay on HT29 colon; over 100 µM in the assay on A549 NSCLC; 16.1 µM in the assay on SF-268 CNS; over 100 µM in the assay on HL-60(TB) leukemia; over 100 µM in the assay on SW-620 colon. The GI50 with OVCAR-5 ovarian was over 100 µM; with DU-145 prostate, 62.5 µM; in the assay on M14 melanoma, over 100 µM; in the assay on ACHN renal it was 18.8 µM. Further, the TGI with RPMI-8226 leukemia was over 100 µM; in the assay on HT29 colon it was over 100 µM; in the assay on A549 NSCLC, over 100 µM; in the assay with SF-268 CNS, 58.8 µM; with HL-60(TB) leukemia it was over 100 µM; in the assay on SW-620 colon, over 100 µM. In addition, the TGI in the assay on OVCAR-5 ovarian, in the assay on DU-145 prostate, in the assay with M14 melanoma and in the assay with ACHN renal was over 100 µM in each case.
Turning to `COc1cc(/C=C/c2cc(/C=C/c3ccc(O)c(OC)c3)n(C(=O)Nc3ccccc3Cl)n2)ccc1O`, the GI50 with RPMI-8226 leukemia is 0.321 µM; in the assay on HT29 colon, 0.323 µM; with A549 NSCLC, 0.336 µM; in the assay on SF-268 CNS, 0.529 µM; in the assay with HL-60(TB) leukemia it was 0.282 µM; with SW-620 colon, 0.389 µM. For the same molecule, the GI50 in the assay on OVCAR-5 ovarian is 1.65 µM; in the assay on DU-145 prostate it was 0.472 µM; in the assay on M14 melanoma, 0.283 µM; in the assay with ACHN renal it was 0.344 µM. Besides, the TGI in the assay on RPMI-8226 leukemia came out at 1.55 µM; in the assay on HT29 colon it was 1.36 µM; with A549 NSCLC, 2.08 µM; in the assay on SF-268 CNS, 3.18 µM; in the assay on HL-60(TB) leukemia it was 0.721 µM; with SW-620 colon, 1.69 µM. The TGI with OVCAR-5 ovarian worked out at 5.5 µM; in the assay on DU-145 prostate it was 1.64 µM; with M14 melanoma it was 1.19 µM; with ACHN renal it was 5.35 µM.
In the case of `CCc1cnn2c(NCc3ccc[n+]([O-])c3)cc(N3CCCC[C@H]3CCO)nc12`, the GI50 in the assay with RPMI-8226 leukemia was < 0.01 µM and 0.00668 µM; in the assay on HT29 colon, < 0.01 µM and 0.00441 µM; with A549 NSCLC, < 0.0163 µM and 0.00853 µM; in the assay with SF-268 CNS it was < 0.01 µM and 0.00348 µM; with HL-60(TB) leukemia it was < 0.01 µM and 0.00319 µM; in the assay with SW-620 colon, < 0.01 µM and 0.00322 µM. Moreover, the GI50 in the assay on OVCAR-5 ovarian was < 0.01 µM and 0.00492 µM; in the assay on DU-145 prostate it was < 0.0127 µM and 0.00728 µM; in the assay with M14 melanoma it was < 0.01 µM and 0.00438 µM; with ACHN renal, < 0.0155 µM and 0.0132 µM. The TGI was 0.0244 µM and 0.0436 µM with RPMI-8226 leukemia; over 10 µM with A549 NSCLC; 0.0576 µM and 0.373 µM with SF-268 CNS; < 0.01 µM and 0.0112 µM with HL-60(TB) leukemia; over 100 µM in the assay with SW-620 colon; over 35.7 µM with OVCAR-5 ovarian. Also, the TGI with DU-145 prostate is over 10 µM; with M14 melanoma, 0.0235 µM and 0.0351 µM; in the assay with ACHN renal, over 10 µM.
